The values that follow come from patent US4596789A, “Proline derivatives” (ICI Americas Inc., priority 1983, dated 1986).

SMILES strings stand for the structures. Starred links: 1 amine or outer side, 2 acyl side, 3 side chain; linkers in the order of their positions; H or OH if unused. Non-standard residues stand in square brackets, D forms with d. Residues, ends and D or L forms follow the SMILES beside them. *: point of attachment. Suc = O=C(CCC(=O)[*:2])[*:1]; MeOSuc = COC(=O)CCC(=O)*; Cbz = O=C(OCc1ccccc1)*; Boc = CC(C)(C)OC(=O)*; CO = O=C([*:1])[*:2]

Data set [1] addresses T1, human leukocyte elastase (HLE) (Homo sapiens, UniProt P08246).
T1 construct: The HLE enzyme used in these studies may be obtained according to B. R. Viscarello et al. in Preparative Biochemistry, Vol. 13 (1983); from tissue; The enzyme was isolated by a cited preparative procedure. b8 says HLE is released from the granules of polymorphonuclear leukocytes
T1 sequence (P08246 30-267): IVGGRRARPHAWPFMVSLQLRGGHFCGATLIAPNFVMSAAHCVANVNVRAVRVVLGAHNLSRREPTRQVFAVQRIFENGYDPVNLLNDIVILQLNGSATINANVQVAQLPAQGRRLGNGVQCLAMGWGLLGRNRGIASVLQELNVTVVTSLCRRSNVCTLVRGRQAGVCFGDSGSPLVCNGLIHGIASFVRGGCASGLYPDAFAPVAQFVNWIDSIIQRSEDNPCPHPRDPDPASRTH
The experiment in a line: Inhibition of human leukocyte elastase acting on a peptide p-nitroanilide substrate, Ki from Dixon plot. The data set is classed as biochemical. Particulars: room temperature; 16.6% (v/v) DMSO, pH 8.1; substrate methoxysuccinyl-alanyl-alanylprolyl-valine-p-nitroanilide 1.6×10^-4 molar; read-out: Ki, dissociation constant of the inhibitor-HLE complex. How it is done: The potency of compounds of the invention to act as elastase inhibitors was determined by the ability of a compound of the invention to inhibit the action of human leukocyte elastase (HLE) on a low molecular weight peptide substrate. The potency of an inhibitor is evaluated by obtaining a kinetic determination of the dissociation constant, Ki, of the complex formed from the interaction of the inhibitor with HLE. The substrate used was the anilide methoxysuccinyl-alanyl-alanylprolyl-valine-p-nitroanilide as described by K. Nakajima et al. in The Journal of Biological Chemistry, Vol. 254, pages 4027-4032 (1979) and by T. Teshima et al. in The Journal of Biological Chemistry, Vol. 257, No. 9, pages 5085-5091 (1982). The HLE enzyme used in these studies may be obtained according to B. R. Viscarello et al. in Preparative Biochemistry, Vol. 13 (1983).
From HLE enzyme obtained as described in the Viscarello et al reference, a standard rate of production of p-nitroaniline was measured at room temperature spectrophotometrically in the visible spectrum at 410 nanometers, with automatic data acquisition in a Cary 210-Apple III Plus microcomputer system obtained from Varian Associates. Reactions were initiated by injection of a small aliquot (50 or 100 microliters) of a stock solution of the anilide substrate in DMSO into a curvette containing buffer and HLE enzyme. The amount of HLE used is sufficient to produce an initial velocity of about 0.01 OD (optical density) per minute. Final volume was 3.0 ml. Initial velocities of production of p-nitroaniline were determined from linear regression analysis of at least 30 data points (OD410 vs. time) taken during the initial, linear, portion of the reaction. The initial velocity for the HLE sample without any inhibitor being present was obtained and used as a standard for the subsequent determination of the initial velocity of the reaction in the presence of an inhibitor to be tested. The Ki value of a particular inhibitor was determined as follows. To a 3 ml cuvette were added […] of a buffer (9 millimolar sodium phosphate, 10% DMSO (v/v), pH=7.9), 100 microliters of inhibitor solution in DMSO and 20 microliters of HLE stock solution at the same concentration used in the control. After the inhibitor and enzyme solution had equilibrated, the reaction was initiated by the addition of 100 microliters of the stock substrate solution in DMSO. The final solution was 16.6% (v/v) in DMSO, with pH 8.1. The substrate was at an initial concentration of 1.6×10^-4 molar. […]

A short description of data set [2]: Pharmacokinetics: serum level of inhibitor after subcutaneous injection. The data set is classed as in vivo, Male Syrian hamsters. The following applies: serum inhibitor concentration vs time. How it is done: Pharmacokinetics: Male Syrian hamsters (80 to 120) g) are injected subcutaneously with the test compound. Prior to injection and at varying time periods thereafter they are lightly anesthetized with ether and blood samples of approximately 0.2 ml each are withdrawn by cardiac puncture. The blood is expressed into 2 ml centrifuge tubes and allowed to clot for one hr. The sample is then centrifuged and the serum removed. Blood samples are taken before (time 0) and 15, 30, 60, 90 and 120 minutes after subcutaneous administration of the test compound in an appropriate vehicle.
Drug levels are determined by first inactivating endogenous elastase inhibitors by incubation of 50 microliters of serum with an equal volume of buffer containing 5 mg/ml bovine pancreatic trypsin for 5 min. […] After an additional 2 min. incubation, the reaction is started by the addition of substrate (100 microliters) (MeOSuc-Ala-Ala-Pro-Val-pNA, 1.6 mM) and the reaction monitored spectrophotometrically at a wavelength of 410 nm. Serum concentrations of the test compounds are determined by the following equation: [formula] where [I], [E] and [S] are the assay concentrations of inhibitor enzyme and substrate respectively, Ki is the inhibition constant of the inhibitor being assayed, Km is the Michaelis constant of the substrate, Vo is the control uninhibited reaction velocity, and Vi is the inhibited reaction velocity. […]

The target in data set [3] is T2, human leukocyte elastase (Homo sapiens, UniProt P08246).
T2 sequence (P08246 30-267): T1 sequence (P08246 30-267)
The following applies: reported by Szabo et al. 1982, cited from earlier work.

For `CC(C)[C@H](NC(=O)[C@H](CCCCNC(=O)OCc1ccccc1)NC(=O)OC(C)(C)C)C(=O)N1CCC[C@H]1C(=O)N[C@H](C=O)C(C)C` [Example 1f, N-alpha-t-Butyloxycarbonyl-N-epsilon-benzyloxycarbonyl-L-lysyl-L-valyl-L-p rolyl-L-valinal] (Boc-K(Cbz)VPV-aldehyde), the inhibitory constant (Ki) in data set [1] is 15 nM.
Turning to `CC(C)[C@H](NC(=O)[C@H](CCCCNC(=O)OCc1ccccc1)NC(=O)CCC(=O)O)C(=O)N1CCC[C@H]1C(=O)N[C@H](C=O)C(C)C` [Example 5b, N-alpha-Succinyl-N-epsilon-benzyloxycarbonyl-L-lysyl-L-valyl-L-prolyl-L-va linal] (Suc-K(Cbz)VPV-aldehyde), in data set [1], the inhibition constant Ki was 30 nM. Further, the “activity in animals as measured by the pharmacokinetics test” value in data set [2] is reported as “good activity in animals”.
As to `COC(=O)CCC(=O)N[C@@H](CCCCNC(=O)OCc1ccccc1)C(=O)N[C@H](C(=O)N1CCC[C@H]1C(=O)N[C@H](C=O)C(C)C)C(C)C` [Example 8b, N-alpha-Methoxysuccinyl-N-epsilon-benzyloxycarbonyl-L-lysyl-L-valyl-L-prol yl-L-valinal] (MeOSuc-K(Cbz)VPV-aldehyde), the Ki in data set [1] turned out to be 6 nM.
Still for that read-out and setting: the result for `COC(=O)[C@H](CC(C)C)NC(=O)N[C@H](C(=O)N1CCC[C@H]1C(=O)N[C@H](C=O)C(C)C)C(C)C` [Example 32g, N-[1(S)-Carbomethoxy-3-methylbutyl]carbamoyl-L-valyl-L-prolyl-L-valinal] ({OMe-Leu-CO}-Val-Pro-Val-aldehyde) reads 94 nM.
With `CC(C)[C@@H](C=O)NC(=O)[C@@H]1CCCN1C(=O)[C@@H](Cc1ccccc1)NC(=O)CCC(=O)O` [N-succinyl-D-phenylalanyl-L-prolyl-L-valinal] (Suc-[dF]-Pro-Val-aldehyde), the “stronger inhibition than the other four aldehydes” value in data set [3] is recorded as 10-100 times. Also, in data set [3] (read-out: Ki (HLE inhibition)), the inhibitory constant (Ki) was 40000 nM.

For orientation: Ki means the equilibrium dissociation constant of an inhibitor or competing ligand from its target.
